According to patent publication US8138168B1 (Takeda Pharmaceutical Company Limited, priority 2007, dated 2012):

Target: T1, Recombinant human renin (Homo sapiens, UniProt P00797)
T1 construct: isolate the active form (residues 67-406); made in house; host or cells: FreeStyle 293-F cells (transient expression of pcDNA3.1(+)/hREN)
T1 sequence (P00797 67-406): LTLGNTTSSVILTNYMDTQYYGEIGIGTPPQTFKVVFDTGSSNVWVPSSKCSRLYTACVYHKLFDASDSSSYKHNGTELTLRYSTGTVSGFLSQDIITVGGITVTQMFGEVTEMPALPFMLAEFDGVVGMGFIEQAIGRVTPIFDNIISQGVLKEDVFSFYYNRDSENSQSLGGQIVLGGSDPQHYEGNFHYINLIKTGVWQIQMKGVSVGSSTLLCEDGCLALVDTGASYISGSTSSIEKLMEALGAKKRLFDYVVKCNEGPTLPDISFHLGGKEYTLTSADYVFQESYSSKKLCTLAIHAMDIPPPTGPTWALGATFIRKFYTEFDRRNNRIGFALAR
Assay: In vitro enzymatic activity assay of renin inhibitors (fluorogenic peptide substrate)
Format: biochemical
Conditions: read-out: IC50 of Exemplified Compounds Against Renin
Summary of the method: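 Recombinant human renin (3 nM final) pre-incubated 10 min at 37 °C with compounds in pH 7.4 Hepes/EDTA/DTT/0.1 mg/mL BSA/Brij35 buffer (optionally plus 2% BSA), 5% DMSO final; fluorogenic QXL520/HiLyteFluo488 peptide substrate added.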

Structure (SMILES)	IC50
COCCCn1c([C@@H]2CCCN(C(=O)[C@@H]3CN(S(=O)(=O)c4ccc(Cl)c(Cl)c4)C[C@H]3N)C2)nc2ccccc21 [Compound 361, ((3R,4S)-4-amino-1-(3,4-dichlorophenylsulfonyl)pyrrolidin-3-yl)((R)-3-(1-(3-methoxypropyl)-1H-benzo[d]imidazol-2-yl)piperidin-1-yl)methanone]	100 to 1000 nM
COCCCn1c([C@@H]2CCCN(C(=O)C[C@H](N)Cc3ccc(-c4ccc5c(c4)OCCN5C)cc3)C2)nc2ccccc21 [Compound 439, (R)-3-amino-1-((R)-3-(1-(3-methoxypropyl)-1H-benzo[d]imidazol-2-yl)piperidin-1-yl)-4-(4-(4-methyl-3,4-dihydro-2H-benzo[b][1,4]oxazin-7-yl)phenyl)butan-1-one]	< 100 nM
COCCCn1c([C@@H]2CCCN(C(=O)C[C@H](N)CNC(=O)c3ccc(-c4cccc(Cl)c4)o3)C2)nc2ccccc21 [Compound 296, N-((S)-2-amino-4-((R)-3-(1-(3-methoxypropyl)-1H-benzo[d]imidazol-2-yl)piperidin-1-yl)-4-oxobutyl)-5-(3-chlorophenyl)furan-2-carboxamide]	100 to 1000 nM
N[C@@H](CC(=O)N1CCCC(c2nc3ccccc3[nH]2)C1)Cc1ccc(Br)cc1 (stereo partly drawn) [Compound 34, (3R)-1-(3-(1H-benzo[d]imidazol-2-yl)piperidin-1-yl)-3-amino-4-(4-bromophenyl)butan-1-one]	> 1000 nM
COC(=O)[C@@H](Cc1ccccc1)NC(=O)N1CCCC(c2nc3ccccc3[nH]2)C1 (stereo partly drawn) [Compound 13, (2R)-methyl 2-(3-(1H-benzo[d]imidazol-2-yl)piperidine-1-carboxamido)-3-phenylpropanoate]	> 1000 nM
CC[C@@H](N)C(=O)N1CCCC(c2nc3ccccc3[nH]2)C1 (stereo partly drawn) [Compound 51, (2R)-1-(3-(1H-benzo[d]imidazol-2-yl)piperidin-1-yl)-2-aminobutan-1-one]	> 1000 nM
COCCCn1c([C@@H]2CCCN(C(=O)C[C@H](N)Cc3ccccc3)C2)nc2ccccc21 [Compound 87, (R)-3-amino-1((R)-3-(1-(3-methoxypropyl)-1H-benzo[d]imidazol-2-yl)piperidin-yl)-4-phenylbutan-1-one]	100 to 1000 nM
COCCCn1c([C@@H]2CCCN(C(=O)C[C@H](N)Cc3ccc(-c4ccc(C(=O)N[C@H](C)CO)cc4)cc3)C2)nc2ccccc21 [Compound 186, 4′-((R)-2-amino-4-((R)-3-(1-(3-methoxypropyl)-1H-benzo[d]imidazol-2-yl)piperidin-1-yl)-4-oxobutyl)-N-((R)-1-hydroxypropan-2-yl)biphenyl-4-carboxamide]	< 100 nM
COCCCn1c([C@H]2CCCN(C(=O)C[C@H](N)Cc3ccc(Cl)cc3)C2)nc2ccccc21 [Compound 68, (R)-3-amino-4-(4-chlorophenyl)-1-((S)-3-(1-(3-methoxypropyl)-1H-benzo[d]imidazol-2-yl)piperidin-1-yl)butan-1-one]	> 1000 nM
C[C@H](N)C(=O)N1CCCC(c2nc3ccccc3[nH]2)C1 (stereo partly drawn) [Compound 53, (2S)-1-(3-(1H-benzo[d]imidazol-2-yl)piperidin-1-yl)-2-aminopropan-1-one]	> 1000 nM
COCCCn1c([C@@H]2CCCN(C(=O)C[C@H](N)Cc3ccc4ccccc4c3)C2)nc2c(C)cccc21 [Compound 106, (R)-3-Amino-1-((R)-3-(1-(3-methoxypropyl)-4-methyl-1H-benzo[d]imidazol-2-yl)piperidin-1-yl)-4-(naphthalen-2-yl)butan-1-one]	< 100 nM
Cc1ccc(NC(=O)N2CCCC(c3nc4ccccc4[nH]3)C2)cc1Cl (centres unmarked) [Compound 1, 3-(1H-Benzo[d]imidazol-2-yl)-N-(3-chloro-4-methylphenyl)piperidine-1-carboxamide]	> 1000 nM
COCCCn1c([C@@H]2CCCN(C(=O)CC(O)Cc3ccc(-c4ccccc4)cc3)C2)nc2ccccc21 (stereo in doubt) [Compound 73, (R)-4-(Biphenyl-4-yl)-3-hydroxy-1-(3-(1-(3-methoxypropyl)-1H-benzo[d]imidazol-2-yl)piperidin-1-yl)butan-1-one]	100 to 1000 nM
O=C(Nc1ccc(Cl)c(C(F)(F)F)c1)N1CCCC(c2nc3ccccc3[nH]2)C1 (centres unmarked) [Compound 7, 3-(1H-benzo[d]imidazol-2-yl)-N-(4-chloro-3-(trifluoromethyl)phenyl)piperidine-1-carboxamide]	> 1000 nM
O=C(C1CCCN1)N1CCCC(c2nc3ccccc3[nH]2)C1 (centres unmarked) [Compound 45, (3-(1H-benzo[d]imidazol-2-yl)piperidin-1-yl)(pyrrolidin-2-yl)methanone]	> 1000 nM
COCCCn1c([C@@H]2CCCN(C(=O)C[C@H](N)Cc3ccc(-c4ccc(C(=O)OC)cc4)cc3)C2)nc2ccccc21 [Compound 123, methyl 4′-((R)-2-amino-4-((R)-3-(1-(3-methoxypropyl)-1H-benzo[d]imidazol-2-yl)piperidin-1-yl)-4-oxobutyl)biphenyl-4-carboxylate]	< 100 nM
CNC(Cc1ccccc1)C(=O)N1CCCC(c2nc3ccccc3[nH]2)C1 (centres unmarked) [Compound 64, 1-(3-(1H-benzo[d]imidazol-2-yl)piperidin-1-yl)-2-(methylamino)-3-phenylpropan-1-one]	> 1000 nM
COCCCn1c(C2CCCN(C(=O)C[C@H](N)Cc3ccc4ccccc4c3)C2)nc2ccc(C(=O)OC)cc21 (stereo partly drawn) [Compound 111, methyl 2-(1-((R)-3-amino-4-(naphthalen-2-yl)butanoyl)piperidin-3-yl)-1-(3-methoxypropyl)-1H-benzo[d]imidazole-6-carboxylate]	100 to 1000 nM
COCCCn1c([C@@H]2CCCN(C(=O)C[C@H](N)CNC(=O)c3ccc(C(=O)OC)cc3)C2)nc2ccccc21 [Compound 314, methyl 4-((S)-2-amino-4-((R)-3-(1-(3-methoxypropyl)-1H-benzo[d]imidazol-2-yl)piperidin-1-yl)-4-oxobutylcarbamoyl)benzoate]	100 to 1000 nM
COCCCn1c([C@@H]2CCCN(C(=O)[C@@H]3CN(C(=O)c4ccc(-c5ccccc5)o4)C[C@H]3N)C2)nc2ccccc21 [Compound 352, ((3R,4S)-4-amino-1-(5-phenylfuran-2-carbonyl)pyrrolidin-3-yl)((R)-3-(1-(3-methoxypropyl)-1H-benzo[d]imidazol-2-yl)piperidin-1-yl)methanone]	100 to 1000 nM
COCCCn1c([C@@H]2CCCN(C(=O)C[C@H](N)CNC(=O)c3cccc(N4CCCCC4)n3)C2)nc2ccccc21 [Compound 313, N-((S)-2-amino-4-((R)-3-(1-(3-methoxypropyl)-1H-benzo[d]imidazol-2-yl)piperidin-1-yl)-4-oxobutyl)-6-(piperidin-1-yl)picolinamide]	100 to 1000 nM
COCCCn1c([C@@H]2CCCN(C(=O)C[C@H](N)CNC(=O)c3ccc(Cl)cc3)C2)nc2ccccc21 [Compound 309, N-((S)-2-amino-4-((R)-3-(1-(3-methoxypropyl)-1H-benzo[d]imidazol-2-yl)piperidin-1-yl)-4-oxobutyl)-4-chlorobenzamide]	100 to 1000 nM
COCCCn1c(C2CCCN(C(=O)C[C@H](N)Cc3ccc(Cl)cc3)C2)nc2ccccc21 (stereo partly drawn) [Compound 24, (3R)-3-amino-4-(4-chlorophenyl)-1-(3-(1-(3-methoxypropyl)-1H-benzo[d]imidazol-2-yl)piperidin-1-yl)butan-1-one]	100 to 1000 nM
COCCCn1c([C@@H]2CCCN(C(=O)C[C@H](N)Cc3ccc(-c4cc[nH]c4)cc3)C2)nc2ccccc21 [Compound 152, (R)-4-(4-(1H-pyrrol-3-yl)phenyl)-3-amino-1-((R)-3-(1-(3-methoxypropyl)-1H-benzo[d]imidazol-2-yl)piperidin-1-yl)butan-1-one]	< 100 nM
COCCCn1c([C@@H]2CCCN(C(=O)C[C@H](N)Cc3ccc(-c4ccc(-n5c(C)n[nH]c5=O)cc4)cc3)C2)nc2ccccc21 [Compound 206, 4-(4′-((R)-2-amino-4-((R)-3-(1-(3-methoxypropyl)-1H-benzo[d]imidazol-2-yl)piperidin-1-yl)-4-oxobutyl)biphenyl-4-yl)-3-methyl-1H-1,2,4-triazol-5(4H)-one]	< 100 nM
N[C@@H](CC(=O)N1CCCC(c2nc3ccccc3[nH]2)C1)c1cccc(Br)c1 (stereo partly drawn) [Compound 41, (3S)-1-(3-(1H-benzo[d]imidazol-2-yl)piperidin-1-yl)-3-amino-3-(3-bromophenyl)propan-1-one]	> 1000 nM
COCCCn1c([C@@H]2CCCN(C(=O)C[C@H](N)Cc3ccncc3)C2)nc2ccccc21 [Compound 78, (R)-3-amino-1-((R)-3-(1-(3-methoxypropyl)-1H-benzo[d]imidazol-2-yl)piperidin-1-yl)-4-(pyridin-4-yl)butan-1-one]	> 1000 nM
COCCCn1c([C@@H]2CCCN(C(=O)[C@@H]3CN(S(=O)(=O)c4c(F)cccc4F)C[C@H]3N)C2)nc2ccccc21 [Compound 426, ((3R,4S)-4-amino-1-(2,6-difluorophenylsulfonyl)pyrrolidin-3-yl)((R)-3-(1-(3-methoxypropyl)-1H-benzo[d]imidazol-2-yl)piperidin-1-yl)methanone]	100 to 1000 nM
COCCCn1c([C@@H]2CCCN(C(=O)[C@@H]3CN(C(=O)Nc4cccc(OC)c4)C[C@H]3N)C2)nc2ccccc21 [Compound 367, (3S,4R)-3-amino-N-(3-methoxyphenyl)-4-((R)-3-(1-(3-methoxypropyl)-1H-benzo[d]imidazol-2-yl)piperidine-1-carbonyl)pyrrolidine-1-carboxamide]	100 to 1000 nM
